# Measurements from paper PMC10281575, “PfCRT mutations conferring piperaquine resistance in falciparum malaria shape the kinetics of quinoline drug binding and transport” (PLOS Pathogens, 2023).
# Values joined by “and” are separate entries in the source; they are usually repeats but may differ in a detail not shown here. Equal values may be shown once.
# Molecular target: T1, PfCRT^Dd2 (Plasmodium falciparum, UniProt Q8IBZ9, A220S/I356T/K76T/M74I/N326S/N75E/Q271E/R371I)
# T1 sequence (Q8IBZ9 1-424 M74I/N75E/K76T/A220S/Q271E/N326S/I356T/R371I): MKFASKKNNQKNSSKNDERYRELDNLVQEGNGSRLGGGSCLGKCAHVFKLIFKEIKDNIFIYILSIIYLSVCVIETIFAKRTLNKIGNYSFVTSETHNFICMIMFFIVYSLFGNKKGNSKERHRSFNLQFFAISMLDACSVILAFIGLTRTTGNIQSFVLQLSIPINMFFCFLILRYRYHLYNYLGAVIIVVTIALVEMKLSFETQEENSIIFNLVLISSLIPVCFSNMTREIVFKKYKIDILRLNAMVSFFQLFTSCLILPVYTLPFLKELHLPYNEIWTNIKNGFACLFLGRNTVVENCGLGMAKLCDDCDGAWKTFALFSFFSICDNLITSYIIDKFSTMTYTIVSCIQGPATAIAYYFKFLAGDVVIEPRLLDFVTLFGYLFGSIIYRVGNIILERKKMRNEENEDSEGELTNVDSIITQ
# Assay: Competition kinetics of drug transport (radiolabeled substrate plus cold inhibitor), PfCRT^Dd2-expressing oocytes
# Type: cell-based
# Design: expressed in transfected cells; host or cells: Xenopus laevis oocytes injected with in vitro transcribed RNA (pSP64T)
# Settings: single replicates
# Description: The experimental procedure and the data analysis were as described above.
# The difference between the two models lies in the value of α, a parameter describing how much the affinity for the substrate changes when the inhibitor is already bound, and vice versa. […] The resulting Vmax,app values and the Vmax,app/KM,app ratios were plotted as a function of the inhibitor concentration (Fig 5A).
# Drug transport assays were performed as previously described. Briefly, measurements of radiolabeled drug uptake were made over 1 h, unless otherwise specified. […] Where specified, one or more unlabeled drugs were also present at the indicated concentrations. […] The uptake assays were terminated by removing the oocytes from the reaction medium and washing them three times with 2 mL of ice-cold ND96 buffer. Each oocyte was transferred to a separate scintillation vial and lysed by the addition of 200 μL of a 5% SDS solution. The radioactivity in the sample was measured using a liquid scintillation analyser Tri-Carb 4910 TR (PerkinElmer). Water-injected oocytes were analyzed in parallel as a negative control. The buffer from each condition was measured in duplicate in parallel to each experiment to transform counts per minute into pmol of drug. Drug uptake attributable to PfCRT was determined by subtracting the background uptake from water-injected oocytes from that of PfCRT-expressing oocytes. In all cases, at least three independent experiments were performed on oocytes from different frogs, and for each condition in an experiment, measurements were made from 10 oocytes per treatment.
# The following equations were adopted from Segel (1993), and the reader is referred to that text for the assumptions made in the author’s approach in the derivation of each equation [31]. The concentration of substrate is denoted as [S1] and the concentration of the inhibiting substrate is denoted as [S2]. KS1 and KS2 are the dissociation constants for the respective substrate-protein complexes.
# Analyses of the kinetic data were performed using SigmaPlot version 13.0 and Python. The drug competition models were globally fit to the kinetic data using the least-squares method and ranked according to their corrected Akaike information criterion difference (ΔAICC) and their Akaike weight, using Python. The two top-ranked models were compared using an F-test.
# This factor reflects how much the affinity of the transporter for one drug changes when the other drug is already bound in the protein cavity. In the former model, α > 0 and α ≠ 1. In the latter model, it could be thought of as if α = 1. Because of this, discriminating between the two models also means determining the value of α. In Mixed-type (Partial) inhibition, the apparent maximal velocity (Vmax,app) is given by Eq 22, Vmax,app=Vmax(1+β[S2]/αKS2)/(1+[S2]/αKS2) (Eq 22)
# Vmax,app is the maximal rate of substrate transport at a certain inhibitor concentration. The half-maximal inhibitory concentration is given by the term in the denominator different from [S2], which in this case is αKS2. This means that by plotting Vmax,app as a function of [S2], the value of αKS2 can be derived after fitting the curve to Eq 23.
# The half-maximal inhibitory concentration derived from this hyperbolic equation is equal to KS2. By plotting Vmax,app/KM,app as a function of [S2], one can derive KS2 after fitting the curve to Eq 25. The value of α can then be calculated dividing αKS2 by KS2.
smiles,measurement,setting,value
"Clc1ccc2c(N3CCN(CCCN4CCN(c5ccnc6cc(Cl)ccc56)CC4)CC3)ccnc2c1 [PPQ, piperaquine]",PfCRTDd2-mediated PPQ transport 10 µM PPQ,0 µM CQ,7.56 pmol oocyte-1 h-1 and 10.37 pmol oocyte-1 h-1 and 9.52 pmol oocyte-1 h-1
same,PfCRTDd2-mediated PPQ transport 10 µM PPQ,25 µM CQ,5.90 pmol oocyte-1 h-1 and 7.56 pmol oocyte-1 h-1 and 12.12 pmol oocyte-1 h-1
same,PfCRTDd2-mediated PPQ transport 10 µM PPQ,50 µM CQ,9.48 pmol oocyte-1 h-1 and 7.04 pmol oocyte-1 h-1 and 8.33 pmol oocyte-1 h-1
same,PfCRTDd2-mediated PPQ transport 10 µM PPQ,125 µM CQ,5.75 pmol oocyte-1 h-1 and 8.54 pmol oocyte-1 h-1 and 9.92 pmol oocyte-1 h-1
same,PfCRTDd2-mediated PPQ transport 10 µM PPQ,200 µM CQ,6.96 pmol oocyte-1 h-1 and 8.23 pmol oocyte-1 h-1 and 6.73 pmol oocyte-1 h-1
same,PfCRTDd2-mediated PPQ transport 10 µM PPQ,400 µM CQ,6.34 pmol oocyte-1 h-1 and 7.80 pmol oocyte-1 h-1 and 6.93 pmol oocyte-1 h-1
same,PfCRTDd2-mediated PPQ transport 50 µM PPQ,0 µM CQ,28.14 pmol oocyte-1 h-1 and 21.87 pmol oocyte-1 h-1 and 89.78 pmol oocyte-1 h-1 and 46.28 pmol oocyte-1 h-1 and 30.01 pmol oocyte-1 h-1 and 33.33 pmol oocyte-1 h-1
same,PfCRTDd2-mediated PPQ transport 50 µM PPQ,25 µM CQ,38.92 pmol oocyte-1 h-1 and 37.28 pmol oocyte-1 h-1 and 39.83 pmol oocyte-1 h-1
same,PfCRTDd2-mediated PPQ transport 50 µM PPQ,50 µM CQ,39.65 pmol oocyte-1 h-1 and 31.99 pmol oocyte-1 h-1 and 26.06 pmol oocyte-1 h-1
same,PfCRTDd2-mediated PPQ transport 50 µM PPQ,125 µM CQ,26.33 pmol oocyte-1 h-1 and 27.41 pmol oocyte-1 h-1 and 34.41 pmol oocyte-1 h-1
same,PfCRTDd2-mediated PPQ transport 50 µM PPQ,200 µM CQ,26.27 pmol oocyte-1 h-1 and 27.81 pmol oocyte-1 h-1 and 32.81 pmol oocyte-1 h-1
same,PfCRTDd2-mediated PPQ transport 50 µM PPQ,400 µM CQ,19.16 pmol oocyte-1 h-1 and 25.87 pmol oocyte-1 h-1 and 24.41 pmol oocyte-1 h-1
same,PfCRTDd2-mediated PPQ transport 100 µM PPQ,0 µM CQ,59.97 pmol oocyte-1 h-1 and 33.72 pmol oocyte-1 h-1 and 64.52 pmol oocyte-1 h-1
same,PfCRTDd2-mediated PPQ transport 100 µM PPQ,25 µM CQ,49.79 pmol oocyte-1 h-1 and 57.28 pmol oocyte-1 h-1 and 48.06 pmol oocyte-1 h-1
same,PfCRTDd2-mediated PPQ transport 100 µM PPQ,50 µM CQ,52.12 pmol oocyte-1 h-1 and 55.31 pmol oocyte-1 h-1 and 42.70 pmol oocyte-1 h-1
same,PfCRTDd2-mediated PPQ transport 100 µM PPQ,125 µM CQ,58.54 pmol oocyte-1 h-1 and 43.73 pmol oocyte-1 h-1 and 42.26 pmol oocyte-1 h-1
same,PfCRTDd2-mediated PPQ transport 100 µM PPQ,200 µM CQ,53.47 pmol oocyte-1 h-1 and 42.58 pmol oocyte-1 h-1 and 43.06 pmol oocyte-1 h-1
same,PfCRTDd2-mediated PPQ transport 100 µM PPQ,400 µM CQ,44.21 pmol oocyte-1 h-1 and 36.58 pmol oocyte-1 h-1 and 41.48 pmol oocyte-1 h-1
same,PfCRTDd2-mediated PPQ transport 200 µM PPQ,0 µM CQ,87.13 pmol oocyte-1 h-1 and 109.05 pmol oocyte-1 h-1 and 57.84 pmol oocyte-1 h-1
same,PfCRTDd2-mediated PPQ transport 200 µM PPQ,25 µM CQ,75.61 pmol oocyte-1 h-1 and 76.21 pmol oocyte-1 h-1 and 79.18 pmol oocyte-1 h-1
same,PfCRTDd2-mediated PPQ transport 200 µM PPQ,50 µM CQ,78.47 pmol oocyte-1 h-1 and 73.08 pmol oocyte-1 h-1 and 76.77 pmol oocyte-1 h-1
same,PfCRTDd2-mediated PPQ transport 200 µM PPQ,125 µM CQ,74.89 pmol oocyte-1 h-1 and 84.24 pmol oocyte-1 h-1 and 63.70 pmol oocyte-1 h-1
same,PfCRTDd2-mediated PPQ transport 200 µM PPQ,200 µM CQ,63.70 pmol oocyte-1 h-1 and 74.56 pmol oocyte-1 h-1 and 71.51 pmol oocyte-1 h-1
same,PfCRTDd2-mediated PPQ transport 200 µM PPQ,400 µM CQ,58.65 pmol oocyte-1 h-1 and 62.98 pmol oocyte-1 h-1 and 61.98 pmol oocyte-1 h-1
same,PfCRTDd2-mediated PPQ transport 300 µM PPQ,0 µM CQ,90.42 pmol oocyte-1 h-1 and 110.91 pmol oocyte-1 h-1 and 77.44 pmol oocyte-1 h-1
same,PfCRTDd2-mediated PPQ transport 300 µM PPQ,25 µM CQ,75.46 pmol oocyte-1 h-1 and 93.24 pmol oocyte-1 h-1 and 86.36 pmol oocyte-1 h-1
same,PfCRTDd2-mediated PPQ transport 300 µM PPQ,50 µM CQ,67.98 pmol oocyte-1 h-1 and 93.33 pmol oocyte-1 h-1 and 91.69 pmol oocyte-1 h-1
same,PfCRTDd2-mediated PPQ transport 300 µM PPQ,125 µM CQ,84.14 pmol oocyte-1 h-1 and 87.90 pmol oocyte-1 h-1 and 73.92 pmol oocyte-1 h-1
same,PfCRTDd2-mediated PPQ transport 300 µM PPQ,200 µM CQ,93.36 pmol oocyte-1 h-1 and 73.07 pmol oocyte-1 h-1 and 56.74 pmol oocyte-1 h-1 and 73.66 pmol oocyte-1 h-1
same,PfCRTDd2-mediated PPQ transport 300 µM PPQ,400 µM CQ,91.78 pmol oocyte-1 h-1 and 67.51 pmol oocyte-1 h-1 and 51.42 pmol oocyte-1 h-1
same,PfCRTDd2-mediated PPQ transport 400 µM PPQ,0 µM CQ,113.37 pmol oocyte-1 h-1 and 109.88 pmol oocyte-1 h-1 and 74.49 pmol oocyte-1 h-1
same,PfCRTDd2-mediated PPQ transport 400 µM PPQ,25 µM CQ,93.45 pmol oocyte-1 h-1 and 86.08 pmol oocyte-1 h-1 and 106.77 pmol oocyte-1 h-1
same,PfCRTDd2-mediated PPQ transport 400 µM PPQ,50 µM CQ,86.04 pmol oocyte-1 h-1 and 73.87 pmol oocyte-1 h-1 and 103.05 pmol oocyte-1 h-1
same,PfCRTDd2-mediated PPQ transport 400 µM PPQ,125 µM CQ,77.98 pmol oocyte-1 h-1 and 81.70 pmol oocyte-1 h-1 and 88.40 pmol oocyte-1 h-1
same,PfCRTDd2-mediated PPQ transport 400 µM PPQ,200 µM CQ,78.64 pmol oocyte-1 h-1 and 88.68 pmol oocyte-1 h-1 and 77.87 pmol oocyte-1 h-1
same,PfCRTDd2-mediated PPQ transport 400 µM PPQ,400 µM CQ,83.22 pmol oocyte-1 h-1 and 67.13 pmol oocyte-1 h-1 and 69.51 pmol oocyte-1 h-1
same,PfCRTDd2-mediated PPQ transport 500 µM PPQ,0 µM CQ,118.94 pmol oocyte-1 h-1 and 82.44 pmol oocyte-1 h-1 and 112.35 pmol oocyte-1 h-1
same,PfCRTDd2-mediated PPQ transport 500 µM PPQ,25 µM CQ,95.67 pmol oocyte-1 h-1 and 107.56 pmol oocyte-1 h-1 and 100.57 pmol oocyte-1 h-1
